Reference: patent publication US4526889A, “Epimeric azahomoerythromycin A derivative, intermediates and method of use” (Pfizer Inc., priority 1984, dated 1985)
Where two headings read alike, the source gives them in different places.

Key:
Assay in all cases: MIC in brain heart infusion (BHI) broth
Serr. mar. 017 = type: cell-based
Excerpt: (§1) Generally twelve 2 fold dilutions of the test compound are employed, with initial concentration of the test drug being in the range of 50 to 200 mcg./ml. The susceptibility (MIC) of the test organism is accepted as the lowest concentration of compound capable of producing complete inhibition of growth as judged by the naked eye. A comparison of the activity of 4"-epi-9-deoxo-9a-methyl-9a-aza-9a-homoerythromycin A (IV) with that of an erythromycin A control is shown in replicate in the Table I.

Kleb. pn. 009 = type: cell-based
Excerpt: as §1

Neiss. sic. 000 = type: cell-based
Excerpt: as §1

E. Coli 266 = type: cell-based; details: Escherichia coli, BHI broth, read-out: MIC
Excerpt: as §1

Staph. aur. 400 = type: cell-based
Excerpt: as §1

Kleb. oxy. 024 = type: cell-based
Excerpt: as §1

E. Coli 129 = type: cell-based; details: Escherichia coli, BHI broth, read-out: MIC
Excerpt: as §1

Strep. pyog. 203 = type: cell-based
Excerpt: as §1

Staph. aur. 052 = type: cell-based; details: BHI broth, read-out: MIC
Excerpt: as §1

Ent. aerog. 040 = type: cell-based
Excerpt: as §1

E. Coli 125 = type: cell-based; details: Escherichia coli, BHI broth, read-out: MIC
Excerpt: as §1

Kleb. pn. 031 = type: cell-based
Excerpt: as §1

Past. mult. 001 = type: cell-based
Excerpt: as §1

E. Coli 470 = type: cell-based; details: Escherichia coli
Excerpt: as §1

Ent. cloac. 009 = type: cell-based
Excerpt: as §1

Strep. faec. 006 = type: cell-based; details: BHI broth, read-out: MIC
Excerpt: as §1

Staph. epi 111 = type: cell-based
Excerpt: as §1

Staph. aur. 005 = type: cell-based; details: BHI broth, read-out: MIC
Excerpt: as §1

Strep. pneumo. 012 = type: cell-based
Excerpt: as §1

Prov. strua. 013 = type: cell-based
Excerpt: as §1

H. influ. 073 = type: cell-based, Hemophilus influenzae; details: Haemophilus influenzae
Excerpt: as §1

H. influ. 012 = type: cell-based, Hemophilus influenzae; details: Haemophilus influenzae
Excerpt: as §1

H. influ. 078 = type: cell-based, Hemophilus influenzae; details: Haemophilus influenzae
Excerpt: as §1

H. influ. 036 = type: cell-based, Hemophilus influenzae; details: Haemophilus influenzae
Excerpt: as §1

H. influ. 051 = type: cell-based, Hemophilus influenzae; details: Haemophilus influenzae
Excerpt: as §1

H. influ. 042 = type: cell-based, Hemophilus influenzae; details: Haemophilus influenzae
Excerpt: as §1

H. influ. 038 = type: cell-based, Hemophilus influenzae; details: Haemophilus influenzae
Excerpt: as §1

H. influ. 081 = type: cell-based, Hemophilus influenzae; details: Haemophilus influenzae
Excerpt: as §1

Measured: MIC

CC[C@H]1OC(=O)[C@H](C)[C@@H](O[C@H]2C[C@@](C)(OC)[C@@H](O)[C@H](C)O2)[C@H](C)[C@@H](O[C@@H]2O[C@H](C)C[C@H](N(C)C)[C@H]2O)[C@](C)(O)C[C@@H](C)C(=O)[C@H](C)[C@@H](O)[C@]1(C)O [Erythromycin A]
1.56 µg/mL: Neiss. sic. 000; 24 h | Past. mult. 001; 24 h | Past. mult. 001; 48 h | H. influ. 012; 48 h, Day 2 | H. influ. 078; 24 h, Day 1 | H. influ. 078; 48 h, Day 2 | H. influ. 042; 24 h, Day 1 | H. influ. 042; 48 h, Day 2
0.025 µg/mL: Strep. pyog. 203; 24 h, Day 1 | Strep. pyog. 203; 48 h, Day 2 | Strep. pneumo. 012; 24 h, Day 1 | Strep. pneumo. 012; 48 h, Day 2
0.05 µg/mL: Staph. epi 111; 24 h, Day 1 | Staph. epi 111; 48 h, Day 2 | Staph. aur. 005; 24 h, Day 1 | Staph. aur. 005; 48 h, Day 2
0.78 µg/mL: Strep. faec. 006; 24 h, Day 1 | Strep. faec. 006; 48 h, Day 2
3.12 µg/mL: Neiss. sic. 000; 48 h | Staph. aur. 400; 24 h | E. Coli 470; 24 h | E. Coli 470; 48 h | H. influ. 073; 24 h | H. influ. 073; 48 h | H. influ. 012; 24 h, Day 1 | H. influ. 036; 48 h, Day 2 | H. influ. 051; 24 h | H. influ. 051; 48 h | H. influ. 038; 48 h | H. influ. 081; 24 h | H. influ. 081; 48 h
0.1 µg/mL: Staph. aur. 052; 24 h, Day 1 | Staph. aur. 052; 48 h, Day 2
> 50 µg/mL: Serr. mar. 017; 24 h, Day 1 | Serr. mar. 017; 48 h, Day 2 | Kleb. pn. 009; 24 h, Day 1 | Kleb. pn. 009; 48 h, Day 2 | E. Coli 266; 24 h, Day 1 | E. Coli 266; 48 h, Day 2 | Kleb. oxy. 024; 24 h, Day 1 | Kleb. oxy. 024; 48 h, Day 2 | E. Coli 129; 24 h, Day 1 | E. Coli 129; 48 h, Day 2 | Ent. aerog. 040; 24 h, Day 1 | Ent. aerog. 040; 48 h, Day 2 | E. Coli 125; 24 h, Day 1 | E. Coli 125; 48 h, Day 2 | Kleb. pn. 031; 24 h, Day 1 | Kleb. pn. 031; 48 h, Day 2 | Ent. cloac. 009; 24 h, Day 1 | Ent. cloac. 009; 48 h, Day 2 | Prov. strua. 013; 24 h, Day 1 | Prov. strua. 013; 48 h, Day 2
6.25 µg/mL: Staph. aur. 400; 48 h | H. influ. 036; 24 h, Day 1 | H. influ. 038; 24 h
